Laboratory results taken from ChEMBL document CHEMBL4219165, “Discovery of a novel allosteric inhibitor scaffold for polyadenosine-diphosphate-ribose polymerase 14 (PARP14) macrodomain 2” (Bioorg Med Chem, 2018).

Target: Protein mono-ADP-ribosyltransferase PARP14 (Homo sapiens, UniProt Q460N5)
Experiment: Displacement of ARTK(Bio)QTARK(Aoa-RADP)S from His6-tagged PARP14 MD2 (A994 to N1191 residues) (unknown origin) expressed in bacterial expression system after 30 mins by AlphaScreen assay

Chain of Protein mono-ADP-ribosyltransferase PARP14 (Q460N5 whole entry, the tested form may be a part): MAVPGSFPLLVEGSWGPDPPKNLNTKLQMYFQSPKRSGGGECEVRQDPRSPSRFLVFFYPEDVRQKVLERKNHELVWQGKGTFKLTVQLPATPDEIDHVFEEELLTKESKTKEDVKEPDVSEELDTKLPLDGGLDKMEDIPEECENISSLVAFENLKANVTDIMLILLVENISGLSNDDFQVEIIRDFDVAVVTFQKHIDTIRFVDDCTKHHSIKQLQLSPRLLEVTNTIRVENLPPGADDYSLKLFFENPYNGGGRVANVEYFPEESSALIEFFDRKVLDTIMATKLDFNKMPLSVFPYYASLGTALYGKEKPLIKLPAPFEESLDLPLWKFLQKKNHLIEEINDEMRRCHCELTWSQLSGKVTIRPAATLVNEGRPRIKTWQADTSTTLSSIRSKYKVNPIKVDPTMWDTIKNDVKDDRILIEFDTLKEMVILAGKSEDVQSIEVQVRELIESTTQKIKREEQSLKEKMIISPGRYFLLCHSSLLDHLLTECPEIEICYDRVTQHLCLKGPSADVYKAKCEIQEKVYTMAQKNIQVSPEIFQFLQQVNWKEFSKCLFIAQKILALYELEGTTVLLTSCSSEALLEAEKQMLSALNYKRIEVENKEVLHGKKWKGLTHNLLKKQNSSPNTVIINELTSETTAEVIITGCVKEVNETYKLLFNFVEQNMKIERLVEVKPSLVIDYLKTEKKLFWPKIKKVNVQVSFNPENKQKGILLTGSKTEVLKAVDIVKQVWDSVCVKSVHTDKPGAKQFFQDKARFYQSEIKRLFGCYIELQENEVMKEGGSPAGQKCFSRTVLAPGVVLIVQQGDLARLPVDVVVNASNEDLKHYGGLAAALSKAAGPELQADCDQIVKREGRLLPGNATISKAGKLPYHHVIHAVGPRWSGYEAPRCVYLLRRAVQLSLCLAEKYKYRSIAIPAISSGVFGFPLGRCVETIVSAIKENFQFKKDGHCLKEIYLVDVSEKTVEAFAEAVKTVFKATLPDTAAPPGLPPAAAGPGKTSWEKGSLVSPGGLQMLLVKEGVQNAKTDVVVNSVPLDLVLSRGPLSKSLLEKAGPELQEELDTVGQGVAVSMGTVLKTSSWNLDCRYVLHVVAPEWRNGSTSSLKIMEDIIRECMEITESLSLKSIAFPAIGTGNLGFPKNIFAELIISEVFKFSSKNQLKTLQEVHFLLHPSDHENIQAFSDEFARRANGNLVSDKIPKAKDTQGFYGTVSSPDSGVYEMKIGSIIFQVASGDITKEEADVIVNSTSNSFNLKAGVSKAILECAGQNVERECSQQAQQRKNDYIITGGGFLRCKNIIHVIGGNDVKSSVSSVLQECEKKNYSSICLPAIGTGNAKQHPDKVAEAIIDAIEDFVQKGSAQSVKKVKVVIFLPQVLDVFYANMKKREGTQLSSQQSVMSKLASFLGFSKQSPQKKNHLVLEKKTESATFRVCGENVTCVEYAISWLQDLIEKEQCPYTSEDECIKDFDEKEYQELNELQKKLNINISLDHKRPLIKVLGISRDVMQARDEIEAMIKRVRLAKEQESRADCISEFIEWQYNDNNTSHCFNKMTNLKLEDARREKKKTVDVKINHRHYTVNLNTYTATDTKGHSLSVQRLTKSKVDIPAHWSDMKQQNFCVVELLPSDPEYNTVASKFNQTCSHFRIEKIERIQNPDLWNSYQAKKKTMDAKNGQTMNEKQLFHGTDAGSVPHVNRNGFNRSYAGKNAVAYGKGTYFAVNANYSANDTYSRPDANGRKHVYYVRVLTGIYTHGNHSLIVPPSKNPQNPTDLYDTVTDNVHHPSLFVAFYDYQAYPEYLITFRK

CC(=O)Nc1ccccc1-c1cccc2c(C(C)C)c[nH]c12
IC50: 18 µM

COc1ccc2[nH]c3c(-c4ccccc4NC(C)=O)cccc3c2c1
IC50: > 50 µM

CC(=O)Nc1ccccc1-c1cccc2c3c([nH]c12)CCNC3
IC50: > 50 µM

CC(Nc1ccccc1-c1cccc2c1[nH]c1ccccc12)C(F)(F)F (racemic)
IC50: > 50 µM
